Data reported in patent publication US9758485B2, “Compounds for controlling arthropods” (priority 2013, dated 2017).

Test system: Musca domestica
Assay: Musca domestica test
Format: in vivo
Conditions: application rate 100 ppm; adult houseflies; kill after 2 days
How it was run: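 Feeding exposure: adult Musca domestica, 10 per vessel, given a sponge with sugar solution and test formulation at the desired concentration; % mortality determined on day 2.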

| SMILES | efficacy [%] |
| --- | --- |
| Cc1cc(C(F)(C(F)(F)F)C(F)(F)F)cc(C(F)(F)F)c1-n1cc(-c2cnc(Cl)c(C(=O)NC3CC3)c2)cn1 [I-T3-106] | 100 |
| Cc1cc(C(F)(C(F)(F)F)C(F)(F)F)cc(C(F)(F)F)c1-n1cc(-c2cnc(Cl)c(C(=O)NC3(C#N)CC3)c2)cn1 [I-T3-108] | 100 |
| CCc1cc(C(F)(C(F)(F)F)C(F)(F)F)cc(C)c1-n1cc(-c2cnc(Cl)c(C(=O)NC3CC3)c2)cn1 [I-T3-109] | 100 |
| CCc1cc(C(F)(C(F)(F)F)C(F)(F)F)cc(C)c1-n1cc(-c2cnc(Cl)c(C(=O)NC3(C#N)CC3)c2)cn1 [I-T3-110] | 100 |
| O=C(NC1CC1)c1cc(-c2cnn(-c3c(Cl)cc(C(F)(C(F)(F)F)C(F)(F)F)cc3C(F)(F)F)c2)cnc1Cl [I-T3-112] | 100 |

Test system: Lucilia cuprina
Assay: Lucilia cuprina test
Format: in vivo
Conditions: application rate 100 ppm; L1 larvae in minced horsemeat; kill after 2 days
How it was run: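 About 20 L1 larvae placed on minced horsemeat treated with compound, formulated in DMSO and diluted with water to test concentration. Kill in % scored after 2 days (100% = all larvae dead, 0% = none).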

| SMILES | efficacy [%] |
| --- | --- |
| Cc1cc(C(F)(C(F)(F)F)C(F)(F)F)cc(C(F)(F)F)c1-n1cc(-c2cnc(Cl)c(C(=O)NC3CC3)c2)cn1 [I-T3-106] | 100 |
| Cc1cc(C(F)(C(F)(F)F)C(F)(F)F)cc(C(F)(F)F)c1-n1cc(-c2cnc(Cl)c(C(=O)NC3(C#N)CC3)c2)cn1 [I-T3-108] | 100 |
| CCc1cc(C(F)(C(F)(F)F)C(F)(F)F)cc(C)c1-n1cc(-c2cnc(Cl)c(C(=O)NC3CC3)c2)cn1 [I-T3-109] | 100 |
| CCc1cc(C(F)(C(F)(F)F)C(F)(F)F)cc(C)c1-n1cc(-c2cnc(Cl)c(C(=O)NC3(C#N)CC3)c2)cn1 [I-T3-110] | 100 |
| O=C(NC1CC1)c1cc(-c2cnn(-c3c(Cl)cc(C(F)(C(F)(F)F)C(F)(F)F)cc3C(F)(F)F)c2)cnc1Cl [I-T3-112] | 100 |

Test system: Boophilus microplus Parkhurst strain, SP-resistant
Assay: Boophilus microplus - dip test
Format: in vivo
Conditions: application rate 100 ppm; dip of engorged adult female ticks; laying of fertile eggs, after 7 days
How it was run: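 Adult engorged females of SP-resistant Parkhurst strain (8–10 per tube) fully immersed in compound diluted in water from a DMSO solution. Ticks then kept on filter discs in a climate-controlled room; efficacy scored from fertile egg laying at 7 days, with unclear eggs held about 42 days until hatch (100% = no fertile eggs).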

| SMILES | efficacy [%] |
| --- | --- |
| Cc1cc(C(F)(C(F)(F)F)C(F)(F)F)cc(C(F)(F)F)c1-n1cc(-c2cnc(Cl)c(C(=O)NC3CC3)c2)cn1 [I-T3-106] | 100 |
| Cc1cc(C(F)(C(F)(F)F)C(F)(F)F)cc(C(F)(F)F)c1-n1cc(-c2cnc(Cl)c(C(=O)NC3(C#N)CC3)c2)cn1 [I-T3-108] | 100 |
| CCc1cc(C(F)(C(F)(F)F)C(F)(F)F)cc(C)c1-n1cc(-c2cnc(Cl)c(C(=O)NC3CC3)c2)cn1 [I-T3-109] | 100 |
| CCc1cc(C(F)(C(F)(F)F)C(F)(F)F)cc(C)c1-n1cc(-c2cnc(Cl)c(C(=O)NC3(C#N)CC3)c2)cn1 [I-T3-110] | 100 |
| O=C(NC1CC1)c1cc(-c2cnn(-c3c(Cl)cc(C(F)(C(F)(F)F)C(F)(F)F)cc3C(F)(F)F)c2)cnc1Cl [I-T3-112] | 100 |

Test system: Ctenocephalides felis
Assay: Ctenocephalides felis - in vitro contact tests with adult cat fleas
Format: in vivo
Conditions: application rate 5 μg/cm^2 (=500 g/ha), after 48 h (dead or moribund)
How it was run: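 Acetone solution coated on test-tube inner walls (900 ppm gives 5 μg/cm^2). After drying, 5-10 adult cat fleas added and kept horizontal at room temperature and ambient humidity. At 48 h fleas knocked down; motionless or uncoordinated ones counted dead/moribund, giving % efficacy.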

| SMILES | efficacy [%] |
| --- | --- |
| Cc1cc(C(F)(C(F)(F)F)C(F)(F)F)cc(C(F)(F)F)c1-n1cc(-c2cnc(Cl)c(C(=O)NC3CC3)c2)cn1 [I-T3-106] | 100 |
| Cc1cc(C(F)(C(F)(F)F)C(F)(F)F)cc(C(F)(F)F)c1-n1cc(-c2cnc(Cl)c(C(=O)NC3(C#N)CC3)c2)cn1 [I-T3-108] | 100 |
| CCc1cc(C(F)(C(F)(F)F)C(F)(F)F)cc(C)c1-n1cc(-c2cnc(Cl)c(C(=O)NC3CC3)c2)cn1 [I-T3-109] | 100 |
| CCc1cc(C(F)(C(F)(F)F)C(F)(F)F)cc(C)c1-n1cc(-c2cnc(Cl)c(C(=O)NC3(C#N)CC3)c2)cn1 [I-T3-110] | 100 |
| O=C(NC1CC1)c1cc(-c2cnn(-c3c(Cl)cc(C(F)(C(F)(F)F)C(F)(F)F)cc3C(F)(F)F)c2)cnc1Cl [I-T3-112] | 100 |

Test system: not listed separately
Assay: logP determination by HPLC on a reversed-phase column (C18), EEC Directive 79/831 Annex V.A8
Format: physicochemical
Conditions: HPLC-MS, reversed-phase column (C18)

| SMILES | log P |
| --- | --- |
| Cc1cc(C(F)(C(F)(F)F)C(F)(F)F)cc(C(F)(F)F)c1-n1cc(-c2cnc(Cl)c(C(=O)NC3CC3)c2)cn1 [I-T3-106] | 4.0 |
| Cc1cc(C(F)(C(F)(F)F)C(F)(F)F)cc(C(F)(F)F)c1-n1cc(-c2cnc(Cl)c(C(=O)NC3(C#N)CC3)c2)cn1 [I-T3-108] | 4.0 |
| CCc1cc(C(F)(C(F)(F)F)C(F)(F)F)cc(C)c1-n1cc(-c2cnc(Cl)c(C(=O)NC3CC3)c2)cn1 [I-T3-109] | 4.2 |
| CCc1cc(C(F)(C(F)(F)F)C(F)(F)F)cc(C)c1-n1cc(-c2cnc(Cl)c(C(=O)NC3(C#N)CC3)c2)cn1 [I-T3-110] | 4.1 |
| O=C(NC1CC1)c1cc(-c2cnn(-c3c(Cl)cc(C(F)(C(F)(F)F)C(F)(F)F)cc3C(F)(F)F)c2)cnc1Cl [I-T3-112] | 4.0 |

Test system: Rhipicephalus sanguineus
Assay: Rhipicephalus sanguineus - in vitro contact tests with adult brown dog ticks
Format: in vivo
Conditions: application rate 1 μg/cm^2, after 48 h (dead or moribund)
How it was run: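 Test compound was dissolved in acetone p.a. (9 mg in 1 ml, then diluted), and 250 μl were spread evenly over the inner surface of 25 ml test tubes on an orbital shaker at 30 rpm for 2 h. Once the solvent evaporated, 5-10 adult Rhipicephalus sanguineus ticks were sealed in, kept dark at room temperature, and after 48 h placed on a 45-50° C. hotplate to score dead or moribund ticks.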

| SMILES | efficacy [%] |
| --- | --- |
| Cc1cc(C(F)(C(F)(F)F)C(F)(F)F)cc(C(F)(F)F)c1-n1cc(-c2cnc(Cl)c(C(=O)NC3(C#N)CC3)c2)cn1 [I-T3-108] | 100 |

Same assay, conditions: application rate 5 μg/cm^2, after 48 h (dead or moribund)

| SMILES | efficacy [%] |
| --- | --- |
| Cc1cc(C(F)(C(F)(F)F)C(F)(F)F)cc(C(F)(F)F)c1-n1cc(-c2cnc(Cl)c(C(=O)NC3CC3)c2)cn1 [I-T3-106] | 100 |
| CCc1cc(C(F)(C(F)(F)F)C(F)(F)F)cc(C)c1-n1cc(-c2cnc(Cl)c(C(=O)NC3CC3)c2)cn1 [I-T3-109] | 100 |
| CCc1cc(C(F)(C(F)(F)F)C(F)(F)F)cc(C)c1-n1cc(-c2cnc(Cl)c(C(=O)NC3(C#N)CC3)c2)cn1 [I-T3-110] | 100 |
| O=C(NC1CC1)c1cc(-c2cnn(-c3c(Cl)cc(C(F)(C(F)(F)F)C(F)(F)F)cc3C(F)(F)F)c2)cnc1Cl [I-T3-112] | 100 |

Test system: Boophilus microplus
Assay: Boophilus microplus - injection test
Format: in vivo
Conditions: application rate 20 μg/animal; injected into engorged adult female ticks; laying of fertile eggs, after 7 days
How it was run: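 Engorged adult female ticks, five per dose, were injected in the abdomen with 1 μl of active ingredient diluted in dimethyl sulphoxide. Animals were kept in dishes under climate control, and egg fertility was assessed after 7 days.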

| SMILES | efficacy [%] |
| --- | --- |
| Cc1cc(C(F)(C(F)(F)F)C(F)(F)F)cc(C(F)(F)F)c1-n1cc(-c2cnc(Cl)c(C(=O)NC3CC3)c2)cn1 [I-T3-106] | 100 |
| Cc1cc(C(F)(C(F)(F)F)C(F)(F)F)cc(C(F)(F)F)c1-n1cc(-c2cnc(Cl)c(C(=O)NC3(C#N)CC3)c2)cn1 [I-T3-108] | 100 |
| CCc1cc(C(F)(C(F)(F)F)C(F)(F)F)cc(C)c1-n1cc(-c2cnc(Cl)c(C(=O)NC3CC3)c2)cn1 [I-T3-109] | 100 |
| CCc1cc(C(F)(C(F)(F)F)C(F)(F)F)cc(C)c1-n1cc(-c2cnc(Cl)c(C(=O)NC3(C#N)CC3)c2)cn1 [I-T3-110] | 100 |
| O=C(NC1CC1)c1cc(-c2cnn(-c3c(Cl)cc(C(F)(C(F)(F)F)C(F)(F)F)cc3C(F)(F)F)c2)cnc1Cl [I-T3-112] | 100 |

Test system: Ctenocephalides felis
Assay: Ctenocephalides felis - oral test
Format: in vivo
Conditions: application rate 100 ppm in citrated cattle blood; adult fleas; kill after 2 days
How it was run: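 Oral exposure of unfed adult fleas, roughly 20 per chamber, to compound-spiked citrated cattle blood taken up across a parafilm membrane. Read-out is percent kill at 2 days, where 100% means every flea dead.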

| SMILES | efficacy [%] |
| --- | --- |
| Cc1cc(C(F)(C(F)(F)F)C(F)(F)F)cc(C(F)(F)F)c1-n1cc(-c2cnc(Cl)c(C(=O)NC3CC3)c2)cn1 [I-T3-106] | 100 |
| Cc1cc(C(F)(C(F)(F)F)C(F)(F)F)cc(C(F)(F)F)c1-n1cc(-c2cnc(Cl)c(C(=O)NC3(C#N)CC3)c2)cn1 [I-T3-108] | 100 |
| CCc1cc(C(F)(C(F)(F)F)C(F)(F)F)cc(C)c1-n1cc(-c2cnc(Cl)c(C(=O)NC3CC3)c2)cn1 [I-T3-109] | 100 |
| CCc1cc(C(F)(C(F)(F)F)C(F)(F)F)cc(C)c1-n1cc(-c2cnc(Cl)c(C(=O)NC3(C#N)CC3)c2)cn1 [I-T3-110] | 100 |
| O=C(NC1CC1)c1cc(-c2cnn(-c3c(Cl)cc(C(F)(C(F)(F)F)C(F)(F)F)cc3C(F)(F)F)c2)cnc1Cl [I-T3-112] | 100 |

Test system: Amblyomma hebraeum
Assay: Amblyomma hebraeum test (tick nymphs, immersion)
Format: in vivo
Conditions: application rate 100 ppm; tick nymphs immersed for one minute; kill after 42 days
Protocol: Solvent: dimethyl sulphoxide
To produce an appropriate active ingredient formulation, 10 mg of active ingredient are mixed with 0.5 ml of dimethyl sulphoxide, and the concentrate is diluted with water to the desired concentration.
Tick nymphs (Amblyomma hebraeum) are placed into perforated plastic beakers and immersed in the desired concentration for one minute. The ticks are transferred on filter paper into a Petri dish and stored in a climate-controlled cabinet.
After 42 days, the kill in % is determined. 100% means that all of the ticks have been killed; 0% means that none of the ticks have been killed.

| SMILES | efficacy [%] |
| --- | --- |
| Cc1cc(C(F)(C(F)(F)F)C(F)(F)F)cc(C(F)(F)F)c1-n1cc(-c2cnc(Cl)c(C(=O)NC3CC3)c2)cn1 [I-T3-106] | 100 |
| Cc1cc(C(F)(C(F)(F)F)C(F)(F)F)cc(C(F)(F)F)c1-n1cc(-c2cnc(Cl)c(C(=O)NC3(C#N)CC3)c2)cn1 [I-T3-108] | 100 |
| CCc1cc(C(F)(C(F)(F)F)C(F)(F)F)cc(C)c1-n1cc(-c2cnc(Cl)c(C(=O)NC3CC3)c2)cn1 [I-T3-109] | 100 |
| CCc1cc(C(F)(C(F)(F)F)C(F)(F)F)cc(C)c1-n1cc(-c2cnc(Cl)c(C(=O)NC3(C#N)CC3)c2)cn1 [I-T3-110] | 100 |
| O=C(NC1CC1)c1cc(-c2cnn(-c3c(Cl)cc(C(F)(C(F)(F)F)C(F)(F)F)cc3C(F)(F)F)c2)cnc1Cl [I-T3-112] | 100 |
